The test system of one assay is growth hormone release. Kind of assay: Peptide effects on growth hormone release in the pentobarbital-anesthetized rat (plasma GH by RIA). It is filed as in vivo. As to the method:
In this evaluation, the procedures described by W. A. Murphy et al., Endocrinology 109: 491-495 (1980), were employed.
In growth hormone (GH) experiments, male rats (Charles Rivers) were anesthetized with NEMBUTAL® (6 mg per 100 g body weight) which also served to maintain stimulated plasma GH levels. Exactly 30 minutes after the rats were anesthetized, 0.5 mL of saline or the test peptide in saline was administered as a SC bolus. A 1 mL blood sample was drawn from the jugular vein 15 minutes after the injection of the peptide in saline or at the indicated times in the time course assay (p26). GH levels were determined using NIADDKD rat GH RIA components.

The test system of another assay is plasma growth hormone. The assay is described as follows: Evaluation of peptides in vivo in sheep: plasma GH levels in lambs injected intravenously at 100 ng/kg. As to conditions: for Plasma GH Peak / Plasma GH Post-inj Mean: 100 ng/kg IV; for Plasma GH Peak: control 12.2; for Plasma GH Post-inj Mean: two hours after treatment, means of 8 samples/animal from 8 animals, control 8.7; for Plasma GH Pre-inj Mean: before IV injection of 100 ng/kg, means of 5 samples/animal from 8 animals, control 8.4. The procedure: The purpose of this experiment is to compare the GH releasing activities of several GRF analogs selected for expected high potency and the lack of either a terminal amide or a D-amino acid. The analogs to be compared in wether lambs at 100 ng/kg (IV) are tri-isopropyl-GRF(1-29)-NH2, tri-isopropyl-GRF(1-29)-OH, tri-isopropyl-GRF(1-40)OH, D-ala^2, arg^12,21 -GRF (1-29)-OH, D-ala^2, arg^12,21 -GRF(1-29)-NH2, GRF(1-40)-OH and GRF(1-29)-NH2
A balanced 8×8 Latin square design will be used to test the following 8 treatments:
Sheep are maintained in individual metabolism cages at all times. Each sheep has previously received an indwelling jugular cannula which is flushed daily with heparinized (400-800 IU/ml) sterile saline to help maintain […].
All compounds are solubilized at 5 ug/ml in sterile saline containing 1% Tween 80 and injected intravenously at 100 ng/kg. Control lambs receive equal volumes of the vehicle only. The drugs are prepared each day just prior to injection to minimize sticking to the vials.
Blood is collected in heparinized tubes at 15 minute intervals for one hour prior to and for two hours after the treatments are administered. Plasma samples are removed by centrifugation and frozen.
Blood samples are taken from each animal at 15 minute intervals for 3 hours each day during the 8 day trial period. The samples are analyzed for plasma growth hormone (ng/ml). Data obtained are reported below as near values obtained for each treatment.

Where no end group is shown, it is not given here.

On to “[N^α -Isopropyl-Tyr^1 ]GRF(1-29)NH2 [N^α iPrTyr^1]”, for which the “PLASMA GH” value in the assay on growth hormone release (dose 0.2 ug/100 g BW SC, 15 min, saline control 325 ± 52) turned out to be 1334 ± 394 ng/mL; in the assay with growth hormone release (dose 2 ug/100 g BW SC, 15 min, saline control 325 ± 52), 3250 ± 362 ng/mL; with growth hormone release (dose 20 ug/100 g BW SC, 15 min, saline control 325 ± 52) it was 3290 ± 241 ng/mL. For the same compound, the POTENCY in the assay with growth hormone release (relative to GRF(1-29)NH2 (=1), estimated by single dose comparisons to pooled standard responses) is ~ 60.
As to `CC[C@H](C)[C@H](NC(=O)[C@H](C)NC(=O)[C@H](CC(=O)O)NC(=O)[C@H](C)NC(=O)[C@H](Cc1ccc(O)cc1)NC)C(=O)N[C@@H](Cc1ccccc1)C(=O)N[C@H](C(=O)N[C@@H](CC(N)=O)C(=O)N[C@@H](CO)C(=O)N[C@@H](Cc1ccc(O)cc1)C(=O)N[C@@H](CCCNC(=N)N)C(=O)N[C@@H](CCCCN)C(=O)N[C@H](C(=O)N[C@@H](CC(C)C)C(=O)NCC(=O)N[C@@H](CCC(N)=O)C(=O)N[C@@H](CC(C)C)C(=O)N[C@@H](CO)C(=O)N[C@@H](C)C(=O)N[C@@H](CCCNC(=N)N)C(=O)N[C@@H](CCCCN)C(=O)N[C@@H](CC(C)C)C(=O)N[C@@H](CC(C)C)C(=O)N[C@@H](CCC(N)=O)C(=O)N[C@@H](CC(=O)O)C(=O)N[C@H](C(=O)N[C@@H](CCSC)C(=O)N[C@@H](CO)C(=O)N[C@@H](CCCNC(=N)N)C(N)=O)[C@@H](C)CC)C(C)C)[C@@H](C)O` [N^α MeTry^1, [N α-MeTyr^1]hpGRF(1-29)-NH2, reference compound], the “PLASMA GH” value in the assay with growth hormone release (dose 30 ug/100 g BW SC, blood 15 min after injection, saline control 243 ± 25) worked out at 1843 ± 196 ng/mL; with growth hormone release (dose 75 ug/100 g BW SC, blood 15 min after injection, saline control 243 ± 25), 2613 ± 418 ng/mL. The POTENCY with growth hormone release (relative to GRF(1-29)NH2 (=1) as standard, by 4point assay (95% CI limits in parentheses)) is on record as 0.42.
Consider “[N ^α -Isopropyl-Tyr^1, N ^ε -isopropyl-Lys^12,21 ]GRF(1-40)OH [tri-isopropyl-GRF(1-40)-OH]”, for which, in the assay with plasma growth hormone, the “Plasma GH Peak” value was 108.6 ng/mL, the “Plasma GH Post-inj Mean” value was 34.0 ng/mL and the “Plasma GH Pre-inj Mean” value was found to be 9.5 ng/mL.
For “GRF(1-40)-OH (YADAIFTNSYRKVLGQLSARKLLQDIMSRQQGESNQERGA-OH; UniProt P01286 32-71, looked up, fragment) [unalkylated human GRF(1-40) free acid, comparator in the sheep test, reference compound]”, in that order: 92.3 ng/mL, 25.5 ng/mL and 9.4 ng/mL.

The values are drawn from patent publication US5112808A, “Alkylated hormone-releasing peptides and method of treatig mammals therewith” (American Cyanamid Company, priority 1988, dated 1992).
